US20210277246A1, “PROBE FOR DETECTING CARBAPENEM-RESISTANT BACTERIA AND USE THEREOF” (priority 2018, published 2021)

Legend:
[1] = tested on: GES; test: Fluorogenic assay (OMCL01203 probe); format: biochemical; details: Klebsiella pneumoniae, 1 isolate
Experimental: (§1) Briefly, 10 μL of a sample was lysed with a Tris-HCl buffer (B-PER, Thermo Scientific Pierce) and then vortexed for 1 minute. After culturing for 30 minutes at room temperature and centrifuging for 5 minutes (10,000 g), 30 μL of the supernatant was reacted with 100 μL of PBS and 13 μL of the fluorescent probe (1 mM). Then, fluorescence was measured for 50 minutes with 5-minute intervals using a fluorescence plate reader (Infinite F200pro, Tecan Group Ltd.).
(§2) In addition, the detection efficiency of the fluorescence detection method using the OMCL01203 probe was compared for carbapenemase-producing carbapenem-resistant bacteria (CP-CRE) and non-carbapenemase-producing carbapenem-resistant bacteria (non-CP-CRE) with mCIM, CarbaNP and CIT methods.

[2] = tested on: OXA; test: Fluorogenic assay (OMCL01203 probe); format: biochemical; details: Escherichia coli, 3 isolates, number of isolates in brackets
Experimental: as §1, §2

[3] = tested on: Non-CP CRE; test: Fluorescent probe detection in lysed clinical isolates; format: biochemical
Experimental: (§3) The detection efficiency of carbapenemase-producing carbapenem-resistant bacteria of a control probe OMCL01201 (CPC-1 described in Chinese Patent Publication No. CN106279178A) and the OMCL01203 probe of the present disclosure was evaluated at Gangnam St. Mary's Hospital for the bacteria described in Table 1.
as §1

[4] = tested on: CPE (carbapenemase-producing Enterobacteriaceae); test: as above; format: biochemical; details: CPE total; 61 isolates
Experimental: as §3, §1

[5] = tested on: CTX-M (ESBL-producer); test: Fluorogenic assay (OMCL01203 probe); format: biochemical; parameters: key: Pos, positive; Neg, negative
Experimental: as §1, §2

[6] = tested on: KPC; test: Fluorogenic assay (OMCL01203 probe); format: biochemical; parameters: key: Pos, positive; Neg, negative
Experimental: as §1, §2

[7] = tested on: VIM; test: Fluorogenic assay (OMCL01203 probe); format: biochemical; parameters: key: Pos, positive; Neg, negative
Experimental: as §1, §2

[8] = tested on: non-CP-CRE; test: Fluorogenic assay (OMCL01203 probe); format: biochemical; parameters: key: Pos, positive; Neg, negative
Experimental: as §1, §2

[9] = tested on: NDM; test: Fluorogenic assay (OMCL01203 probe); format: biochemical; parameters: key: Pos, positive; Neg, negative
Experimental: as §1, §2

[10] = tested on: NDM/OXA; test: Fluorogenic assay (OMCL01203 probe); format: biochemical; parameters: key: Pos, positive; Neg, negative; details: NDM/OXA co-producing; Klebsiella pneumoniae; 1 isolate
Experimental: as §1, §2

[11] = tested on: GES; test: Fluorogenic assay (OMCL01203 probe); format: biochemical; parameters: key: Pos, positive; Neg, negative; details: Escherichia coli, 2 isolates
Experimental: as §1, §2

[12] = tested on: OXA; test: Fluorogenic assay (OMCL01203 probe); format: biochemical; parameters: key: Pos, positive; Neg, negative
Experimental: as §1, §2

[13] = tested on: IMP; test: Fluorogenic assay (OMCL01203 probe); format: biochemical; parameters: key: Pos, positive; Neg, negative; details: Escherichia coli, 1 isolate
Experimental: as §1, §2

[14] = tested on: KPC/OXA; test: Fluorogenic assay (OMCL01203 probe); format: biochemical; parameters: key: Pos, positive; Neg, negative; details: KPC/OXA co-producing; Klebsiella pneumoniae; 2 isolates
Experimental: as §1, §2

[15] = tested on: non-producer; test: Fluorogenic assay (OMCL01203 probe); format: biochemical; parameters: key: Pos, positive; Neg, negative
Experimental: as §1, §2

[16] = tested on: non-CPE (negative bacteria); test: Fluorogenic assay (OMCL01203 probe), all non-CPE of Table 2; format: biochemical
Experimental: as §1, §2

[17] = tested on: KPC; test: Fluorescent probe detection in lysed clinical isolates; format: biochemical, Enterobacteriaceae; details: Ambler class A, 33 isolates
Experimental: as §3, §1

[18] = tested on: VIM; test: as above; format: biochemical, Enterobacteriaceae; details: Ambler class B, 7 isolates
Experimental: as §3, §1

[19] = tested on: NDM; test: as above; format: biochemical, Enterobacteriaceae; details: Ambler class B, 9 isolates
Experimental: as §3, §1

[20] = tested on: NDM/OXA; test: as above; format: biochemical, Enterobacteriaceae; details: NDM/OXA co-producing; 1 isolate
Experimental: as §3, §1

[21] = tested on: GES; test: as above; format: biochemical, Enterobacteriaceae; details: Ambler class A, 2 isolates
Experimental: as §3, §1

[22] = tested on: OXA; test: as above; format: biochemical, Enterobacteriaceae; details: Ambler class D, 6 isolates
Experimental: as §3, §1

[23] = tested on: IMP; test: as above; format: biochemical, Enterobacteriaceae; details: Ambler class B, 1 isolate
Experimental: as §3, §1

[24] = tested on: KPC/OXA; test: as above; format: biochemical, Enterobacteriaceae; details: KPC/OXA co-producing; 2 isolates
Experimental: as §3, §1

[25] = tested on: Klebsiella aerogenes (KPC); test: MIC of carbapenems for isolates; format: cell-based; details: 1 isolate
[26] = tested on: Klebsiella oxytoca (KPC); test: MIC of carbapenems for isolates; format: cell-based; details: 1 isolate
[27] = tested on: Citrobacter freundii (non-CP-CRE); test: MIC of carbapenems for isolates; format: cell-based; details: 1 isolate
[28] = tested on: Escherichia coli (IMP); test: MIC of carbapenems for isolates; format: cell-based; details: 1 isolate
[29] = tested on: Klebsiella pneumoniae (non-producer); test: MIC of carbapenems for isolates; format: cell-based; details: 21 isolates
[30] = tested on: Enterobacter cloacae (NDM); test: MIC of carbapenems for isolates; format: cell-based; details: 2 isolates
[31] = tested on: Klebsiella pneumoniae (ESBL-producer, CTX-M); test: MIC of carbapenems for isolates; format: cell-based; details: 24 isolates
[32] = tested on: Citrobacter freundii (NDM); test: MIC of carbapenems for isolates; format: cell-based; details: 1 isolate
[33] = tested on: Klebsiella pneumoniae (NDM/OXA); test: MIC of carbapenems for isolates; format: cell-based; details: NDM/OXA co-producing, 1 isolate
[34] = tested on: Escherichia coli (non-CP-CRE); test: MIC of carbapenems for isolates; format: cell-based; details: 8 isolates
[35] = tested on: Escherichia coli (OXA); test: MIC of carbapenems for isolates; format: cell-based; details: 3 isolates
[36] = tested on: Klebsiella pneumoniae (VIM); test: MIC of carbapenems for isolates; format: cell-based; details: 1 isolate
[37] = tested on: Escherichia coli (non-producer); test: MIC of carbapenems for isolates; format: cell-based; details: 32 isolates
[38] = tested on: Escherichia coli (ESBL-producer, CTX-M); test: MIC of carbapenems for isolates; format: cell-based; details: 29 isolates
[39] = tested on: Morganella morganii (NDM); test: MIC of carbapenems for isolates; format: cell-based; details: 1 isolate
[40] = tested on: Escherichia coli (KPC); test: MIC of carbapenems for isolates; format: cell-based; details: 3 isolates
[41] = tested on: Klebsiella pneumoniae (KPC/OXA); test: MIC of carbapenems for isolates; format: cell-based; details: KPC/OXA co-producing, 2 isolates
[42] = tested on: Klebsiella oxytoca (VIM); test: MIC of carbapenems for isolates; format: cell-based; details: 1 isolate
[43] = tested on: Klebsiella pneumoniae (NDM); test: MIC of carbapenems for isolates; format: cell-based; details: 1 isolate
[44] = tested on: Klebsiella pneumoniae (GES); test: MIC of carbapenems for isolates; format: cell-based; details: 1 isolate
[45] = tested on: Klebsiella pneumoniae (OXA); test: MIC of carbapenems for isolates; format: cell-based; details: 2 isolates
[46] = tested on: Escherichia coli (NDM); test: MIC of carbapenems for isolates; format: cell-based; details: 4 isolates
[47] = tested on: Enterobacter amnigenus (non-CP-CRE); test: MIC of carbapenems for isolates; format: cell-based; details: Lelliottia amnigena, 4 isolates
[48] = tested on: Citrobacter freundii (OXA); test: MIC of carbapenems for isolates; format: cell-based; details: 1 isolate
[49] = tested on: Citrobacter freundii (KPC); test: MIC of carbapenems for isolates; format: cell-based; details: 1 isolate
[50] = tested on: Klebsiella pneumoniae (non-CP-CRE); test: MIC of carbapenems for isolates; format: cell-based; details: 22 isolates
[51] = tested on: Enterobacter cloacae (VIM); test: MIC of carbapenems for isolates; format: cell-based; details: 1 isolate
[52] = Citrobacter freundii, 1 isolate
[53] = Klebsiella pneumoniae, 1 isolate

## C[C@@H](O)[C@H]1C(=O)N2C(C(=O)O)=C(COc3ccc(COc4ccc5ccc(=O)oc5c4)cc3)[C@H](C)[C@H]12 [OMCL01203]
[1]
  Fluore result: Neg(1)
[2]; isolates testing negative
  Fluore result: Neg(2)
[2]; isolates testing positive
  Fluore result: Pos(1);
[3]; Non-CP CRE, 40 isolates
  Pos. %: 0%
  result(s) (isolates determined positive): 0
[3]; all 40 non-CPE species
  determination of non-CPE species: negative
[4]
  Pos. %: 97%
  result(s) (isolates determined positive): 59
[5]; Escherichia coli, 29 isolates
  Fluore result: Neg
[5]; Klebsiella pneumoniae, 24 isolates
  Fluore result: Neg
[6]; [52]
  Fluore result: Pos
[6]; Escherichia coli, 3 isolates
  Fluore result: Pos
[6]; Klebsiella aerogenes, 1 isolate
  Fluore result: Pos
[6]; Klebsiella oxytoca, 1 isolate
  Fluore result: Pos
[6]; Klebsiella pneumoniae, 30 isolates
  Fluore result: Pos
[7]; Citrobacter freundii, 4 isolates
  Fluore result: Pos
[7]; Enterobacter cloacae, 1 isolate
  Fluore result: Pos
[7]; Klebsiella oxytoca, 1 isolate
  Fluore result: Pos
[7]; [53]
  Fluore result: Pos
[8]; [52]
  Fluore result: Neg
[8]; Enterobacter amnigenus, 4 isolates
  Fluore result: Neg
[8]; Enterobacter cloacae, 10 isolates
  Fluore result: Neg
[8]; Escherichia coli, 8 isolates
  Fluore result: Neg
[8]; Klebsiella aerogenes, 3 isolates
  Fluore result: Neg
[8]; Klebsiella pneumoniae, 22 isolates
  Fluore result: Neg
[9]; [52]
  Fluore result: Pos
[9]; Enterobacter cloacae, 2 isolates
  Fluore result: Pos
[9]; Escherichia coli, 4 isolates
  Fluore result: Pos
[9]; [53]
  Fluore result: Pos
[9]; Morganella morganii, 1 isolate
  Fluore result: Pos
[10]
  Fluore result: Pos
[11]
  Fluore result: Pos
[12]; [52]
  Fluore result: Pos
[12]; Klebsiella pneumoniae, 2 isolates
  Fluore result: Pos
[13]
  Fluore result: Pos
[14]
  Fluore result: Pos
[15]; Escherichia coli, 32 isolates
  Fluore result: Neg
[15]; Klebsiella pneumoniae, 21 isolates
  Fluore result: Neg
[16]
  determination of negative bacteria: negative
[17]
  Pos. %: 100%
  result(s) (isolates determined positive): 33
[18]
  Pos. %: 100%
  result(s) (isolates determined positive): 7
[19]
  Pos. %: 89%
  result(s) (isolates determined positive): 8
[20]
  Pos. %: 100%
  result(s) (isolates determined positive): 1
[21]
  Pos. %: 100%
  result(s) (isolates determined positive): 2
[22]
  Pos. %: 83%
  result(s) (isolates determined positive): 5
[23]
  Pos. %: 100%
  result(s) (isolates determined positive): 1
[24]
  Pos. %: 100%
  result(s) (isolates determined positive): 2

## C[C@@H](O)[C@H]1C(=O)N2C(C(=O)O)=C(SCCN=CN)C[C@H]12 [IPM, imipenem]
[25]
  MIC: > 16 µg/mL
[26]
  MIC: > 16 µg/mL
[27]
  MIC: 1 µg/mL
[28]
  MIC: 1 µg/mL
[29]
  MIC: 0.25 to 1 µg/mL
[30]
  MIC: > 16 µg/mL
[31]
  MIC: 0.25 to 1 µg/mL
[32]
  MIC: 8 µg/mL
[33]
  MIC: 4 µg/mL
[34]
  MIC: 0.5 to 16 µg/mL
[35]
  MIC: 0.5 to 8 µg/mL
[36]
  MIC: > 16 µg/mL
[37]
  MIC: 0.25 to 0.5 µg/mL
[38]
  MIC: 0.25 to 1 µg/mL
[39]
  MIC: > 16 µg/mL
[40]
  MIC: 2 to 8 µg/mL
[41]
  MIC: 4 to 16 µg/mL
[42]
  MIC: 2 µg/mL
[43]
  MIC: > 16 µg/mL
[44]
  MIC: > 16 µg/mL
[45]
  MIC: 2 to 4 µg/mL
[46]
  MIC: 8 to 16 µg/mL
[47]
  MIC: 8 to 16 µg/mL
[48]
  MIC: 2 µg/mL
[49]
  MIC: > 16 µg/mL
[50]
  MIC: 0.5 to 16 µg/mL
[51]
  MIC: 4 µg/mL
